Data taken from ChEMBL document CHEMBL1135159, “Pyrazolo[3,4-d]pyrimidines containing an extended 3-substituent as potent inhibitors of Lck -- a selectivity insight” (Bioorg Med Chem Lett, 2002).

Columns and labels:
[1] = target: T1, Vascular endothelial growth factor receptor 2 (Homo sapiens, UniProt P35968); test: Inhibition of human VEGF-receptor 2 (kdr) kinase.
Rattus norvegicus [2] = test: In vivo clearance after 5 mg/kg dose; format: ADME, organism-based; parameters: dose 5 mg/kg
[3] = Compound was evaluated for pharmacokinetic parameter volume of distribution; format: ADME, organism-based; settings: rat, in vivo
[4] = Compound was evaluated for pharmacokinetic parameter percent bioavailability at 18 h; format: ADME, organism-based; settings: rat, in vivo
[5] = Compound was evaluated for pharmacokinetic parameter maximum time period; format: ADME, organism-based; settings: rat, in vivo
Rattus norvegicus [6] = species on record: Rattus norvegicus; test: Compound was evaluated for pharmacokinetic parameter maximum plasma concentration; format: ADME, organism-based; settings: in vivo
Mus musculus [7] = test: Tested in vivo for inhibition ofTCR stimulated (alpha-CD3 mAb) IL-2 production in mice after oral dosing for 18 hr; format: functional; parameters: concentration or dose not given beside the values
Mus musculus [8] = test: Tested in vivo for inhibition ofTCR stimulated (alpha-CD3 mAb) IL-2 production in mice after oral dosing for 8 hr; format: functional; parameters: concentration or dose not given beside the values
Mus musculus [9] = test: Tested in vivo for inhibition ofTCR stimulated (alpha-CD3 mAb) IL-2 production in mice after oral dosing; format: functional
[10] = target: T1, Vascular endothelial growth factor receptor 2; test: Inhibition of Vascular endothelial growth factor receptor 2
[11] = target: Tyrosine-protein kinase Lck (Homo sapiens, UniProt P06239); test: Inhibition of human p56 Lck tyrosine kinase
[12] = Compound was evaluated for pharmacokinetic parameter percent bioavailability at 8 h; format: ADME, organism-based; settings: rat, in vivo
Homo sapiens = species on record: Homo sapiens; test: Inhibition of alpha-CD3 mAb induced IL-2 production in human whole blood; format: functional, organism-based
[13] = target: Proto-oncogene tyrosine-protein kinase Src (Homo sapiens, UniProt P12931); test: Inhibition of Src protein tyrosine kinase
Angiopoietin-1 receptor = Angiopoietin-1 receptor (Homo sapiens, UniProt Q02763); test: Inhibition of TIE-2 kinase
Angiopoietin-1 receptor, sequence (Q02763 whole entry): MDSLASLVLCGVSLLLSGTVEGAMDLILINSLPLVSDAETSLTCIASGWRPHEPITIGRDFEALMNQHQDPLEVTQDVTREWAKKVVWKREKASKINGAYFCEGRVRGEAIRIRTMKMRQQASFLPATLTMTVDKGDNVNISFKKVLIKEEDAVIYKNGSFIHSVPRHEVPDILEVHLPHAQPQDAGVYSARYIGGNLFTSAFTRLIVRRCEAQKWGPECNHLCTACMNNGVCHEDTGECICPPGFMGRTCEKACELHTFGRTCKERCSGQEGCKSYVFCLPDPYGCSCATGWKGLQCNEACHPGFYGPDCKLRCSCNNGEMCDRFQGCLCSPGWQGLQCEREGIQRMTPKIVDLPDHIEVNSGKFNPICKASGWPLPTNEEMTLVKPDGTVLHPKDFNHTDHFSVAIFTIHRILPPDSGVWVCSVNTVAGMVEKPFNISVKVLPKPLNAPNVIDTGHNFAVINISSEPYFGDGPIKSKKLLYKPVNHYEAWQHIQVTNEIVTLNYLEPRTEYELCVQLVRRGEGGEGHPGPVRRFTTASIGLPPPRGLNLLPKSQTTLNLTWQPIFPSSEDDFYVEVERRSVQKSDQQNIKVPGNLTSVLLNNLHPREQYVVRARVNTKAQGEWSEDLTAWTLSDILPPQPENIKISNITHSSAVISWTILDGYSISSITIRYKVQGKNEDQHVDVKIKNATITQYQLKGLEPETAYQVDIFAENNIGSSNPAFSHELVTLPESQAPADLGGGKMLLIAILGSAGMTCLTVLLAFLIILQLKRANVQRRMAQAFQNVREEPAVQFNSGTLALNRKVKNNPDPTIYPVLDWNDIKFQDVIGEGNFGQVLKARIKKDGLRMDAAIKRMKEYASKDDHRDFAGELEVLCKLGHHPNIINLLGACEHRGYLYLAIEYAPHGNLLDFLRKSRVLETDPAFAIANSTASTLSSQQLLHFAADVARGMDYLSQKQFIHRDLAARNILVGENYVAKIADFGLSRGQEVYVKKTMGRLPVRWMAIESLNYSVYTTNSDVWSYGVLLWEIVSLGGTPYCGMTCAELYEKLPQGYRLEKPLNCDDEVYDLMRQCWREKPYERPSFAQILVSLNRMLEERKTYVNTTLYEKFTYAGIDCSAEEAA

Tyrosine-protein kinase Lck, sequence (P06239 whole entry): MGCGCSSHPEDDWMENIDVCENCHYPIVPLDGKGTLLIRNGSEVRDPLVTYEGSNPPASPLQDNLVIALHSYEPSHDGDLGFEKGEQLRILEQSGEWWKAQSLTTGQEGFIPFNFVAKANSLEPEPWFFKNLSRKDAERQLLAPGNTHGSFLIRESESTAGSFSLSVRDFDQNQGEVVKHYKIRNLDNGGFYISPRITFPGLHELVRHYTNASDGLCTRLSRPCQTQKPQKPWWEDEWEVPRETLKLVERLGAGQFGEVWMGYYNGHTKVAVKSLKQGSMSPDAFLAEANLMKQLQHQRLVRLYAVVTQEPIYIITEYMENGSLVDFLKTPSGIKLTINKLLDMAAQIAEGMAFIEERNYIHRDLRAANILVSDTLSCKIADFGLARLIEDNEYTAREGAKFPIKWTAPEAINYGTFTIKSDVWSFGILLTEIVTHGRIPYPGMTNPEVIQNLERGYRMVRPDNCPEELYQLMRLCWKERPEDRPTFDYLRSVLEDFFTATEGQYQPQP
T1 sequence (P35968 whole entry): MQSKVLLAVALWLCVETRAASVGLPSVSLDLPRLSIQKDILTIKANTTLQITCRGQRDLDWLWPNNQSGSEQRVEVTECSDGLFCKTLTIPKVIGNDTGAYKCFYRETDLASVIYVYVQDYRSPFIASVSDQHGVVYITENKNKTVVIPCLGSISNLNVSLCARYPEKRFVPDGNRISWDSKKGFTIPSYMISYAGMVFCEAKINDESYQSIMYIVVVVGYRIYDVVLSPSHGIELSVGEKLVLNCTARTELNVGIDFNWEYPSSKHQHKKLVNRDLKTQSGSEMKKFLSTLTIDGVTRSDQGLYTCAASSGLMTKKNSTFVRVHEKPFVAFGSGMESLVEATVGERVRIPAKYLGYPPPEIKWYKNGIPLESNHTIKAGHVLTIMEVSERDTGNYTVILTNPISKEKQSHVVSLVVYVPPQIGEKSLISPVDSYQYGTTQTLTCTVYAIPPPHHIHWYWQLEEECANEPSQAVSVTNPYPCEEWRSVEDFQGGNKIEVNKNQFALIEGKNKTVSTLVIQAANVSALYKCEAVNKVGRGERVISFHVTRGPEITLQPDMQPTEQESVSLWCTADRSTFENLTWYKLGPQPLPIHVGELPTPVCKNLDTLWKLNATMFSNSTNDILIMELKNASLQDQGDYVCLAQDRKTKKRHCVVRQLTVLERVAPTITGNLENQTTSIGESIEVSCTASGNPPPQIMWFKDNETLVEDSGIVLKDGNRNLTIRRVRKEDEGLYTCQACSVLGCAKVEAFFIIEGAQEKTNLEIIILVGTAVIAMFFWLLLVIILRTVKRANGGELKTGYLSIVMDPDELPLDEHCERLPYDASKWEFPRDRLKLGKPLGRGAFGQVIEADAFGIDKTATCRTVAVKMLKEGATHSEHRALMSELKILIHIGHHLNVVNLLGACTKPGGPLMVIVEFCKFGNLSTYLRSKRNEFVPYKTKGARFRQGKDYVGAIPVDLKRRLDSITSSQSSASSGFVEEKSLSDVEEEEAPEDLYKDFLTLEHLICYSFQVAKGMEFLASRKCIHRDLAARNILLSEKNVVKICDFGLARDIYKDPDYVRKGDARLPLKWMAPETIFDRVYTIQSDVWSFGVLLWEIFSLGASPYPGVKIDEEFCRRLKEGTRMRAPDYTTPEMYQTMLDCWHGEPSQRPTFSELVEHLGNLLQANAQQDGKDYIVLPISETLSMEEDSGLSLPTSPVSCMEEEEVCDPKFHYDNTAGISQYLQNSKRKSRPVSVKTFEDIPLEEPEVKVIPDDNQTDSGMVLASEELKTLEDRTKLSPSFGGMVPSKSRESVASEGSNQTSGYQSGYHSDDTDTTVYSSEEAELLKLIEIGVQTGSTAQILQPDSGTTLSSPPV
Proto-oncogene tyrosine-protein kinase Src, sequence (P12931 2-536 limits assumed): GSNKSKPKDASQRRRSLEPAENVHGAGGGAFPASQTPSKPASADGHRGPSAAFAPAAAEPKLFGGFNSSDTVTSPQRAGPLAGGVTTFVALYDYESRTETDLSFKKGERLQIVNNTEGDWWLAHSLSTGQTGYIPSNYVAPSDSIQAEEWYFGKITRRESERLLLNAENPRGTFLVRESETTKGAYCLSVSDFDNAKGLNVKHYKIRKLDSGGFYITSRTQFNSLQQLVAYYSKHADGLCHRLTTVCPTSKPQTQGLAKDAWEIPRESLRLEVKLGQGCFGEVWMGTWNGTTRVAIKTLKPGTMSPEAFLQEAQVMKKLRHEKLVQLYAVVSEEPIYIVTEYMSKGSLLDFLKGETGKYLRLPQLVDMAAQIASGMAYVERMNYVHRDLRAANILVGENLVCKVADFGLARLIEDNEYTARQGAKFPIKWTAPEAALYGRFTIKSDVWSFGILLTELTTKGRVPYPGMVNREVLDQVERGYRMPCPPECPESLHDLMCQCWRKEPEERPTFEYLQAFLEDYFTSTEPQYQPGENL

| SMILES | IC50 [1] | Inhibition (Mus musculus [7]) | Inhibition (Mus musculus [8]) | ED50 (Mus musculus [9]) | ED90 (Mus musculus [9]) | IC50 (Homo sapiens) | other results |
| --- | --- | --- | --- | --- | --- | --- | --- |
| CN1CCN([C@H]2CC[C@H](n3nc(-c4ccc(C(=O)c5ccccc5)cc4)c4c(N)ncnc43)CC2)CC1 | > 50000 nM |  |  |  |  |  |  |
| CN1CCN([C@H]2CC[C@H](n3nc(-c4ccc(Oc5ccccc5)cc4)c4c(N)ncnc43)CC2)CC1 |  | 49% | 84% | 1.5 mg/kg | 6 mg/kg |  | Clp (Rattus norvegicus [2]): 20 mL/min/kg; Vd [3]: 9.6 L/kg; bioavailability [4]: 69%; Tmax [5]: 1.5 h; Cmax (Rattus norvegicus [6]): 0.62 uM l-1; IC50 [10]: 5320 nM; IC50 [11]: 40 nM; half-life [12]: 5.2 h |
| CN1CCN([C@H]2CC[C@H](n3nc(-c4ccc(Nc5ccccc5)cc4)c4c(N)ncnc43)CC2)CC1 | 3810 nM | <10% | 95% | 2.5 mg/kg | 10.7 mg/kg | 135 nM |  |
| COc1cc(-c2nn([C@H]3CC[C@H](N4CCN(C)CC4)CC3)c3ncnc(N)c23)ccc1NC(=O)CCc1ccccc1 | > 50000 nM | <10% | 63% | 5 mg/kg | 30 mg/kg | 38 nM |  |
| COc1cc(-c2nn([C@H]3CC[C@H](N4CCN(C)CC4)CC3)c3ncnc(N)c23)ccc1NC(=O)c1ccccc1 | > 50000 nM | <10% | 37% | 9 mg/kg | 23 mg/kg | 50 nM |  |
| COc1cc(-c2nn([C@H]3CC[C@H](N4CCN(C)CC4)CC3)c3ncnc(N)c23)ccc1NS(=O)(=O)c1ccccc1 | > 50000 nM |  |  |  |  |  |  |
| CN1CCN([C@H]2CC[C@H](n3nc(-c4ccc(NCc5cc6ccccc6[nH]5)cc4)c4c(N)ncnc43)CC2)CC1 | 435 nM |  |  |  |  |  |  |
| COc1cc(-c2nn([C@H]3CC[C@H](N4CCN(C)CC4)CC3)c3ncnc(N)c23)ccc1NC(=O)OCc1ccccc1 | 34200 nM | 14% | 51% | 3 mg/kg | 14 mg/kg | 2 nM |  |
| COc1cc(-c2nn([C@H]3CC[C@H](N4CCN(C)CC4)CC3)c3ncnc(N)c23)ccc1NC(=O)CC(C)(C)c1ccccc1 | 34600 nM | 22% | 98% | 2 mg/kg | 12.5 mg/kg | 8 nM |  |
| COc1cc(-c2nn([C@H]3CC[C@H](N4CCN(C)CC4)CC3)c3ncnc(N)c23)ccc1NC(=O)C(C)(C)Cc1ccccc1 | > 50000 nM |  |  |  |  |  |  |
| COc1cc(-c2nn([C@H]3CC[C@H](N4CCN(C)CC4)CC3)c3ncnc(N)c23)ccc1NC(=O)c1cc2ccccc2o1 | > 50000 nM | <10% | 48% | 8.5 mg/kg | 12.5 mg/kg | 6 nM |  |
| CN1CCN([C@H]2CC[C@H](n3cc(-c4ccc(Oc5ccccc5)cc4)c4c(N)ncnc43)CC2)CC1 |  |  |  | 2.5 mg/kg |  |  | IC50 [13]: 42 nM; IC50 (Angiopoietin-1 receptor): 250 nM; IC50 [11]: 15 nM |
| COc1cc(-c2nn([C@H]3CC[C@H](N4CCN(C)CC4)CC3)c3ncnc(N)c23)ccc1NC(=O)Nc1ccccc1 | 263 nM |  |  |  |  |  |  |
| COc1cc(Cc2nn([C@H]3CC[C@H](N4CCN(C)CC4)CC3)c3ncnc(N)c23)ccc1NC(=O)[C@@H]1C[C@H]1c1ccccc1 | > 50000 nM |  |  |  |  |  |  |
| COc1cc(-c2nn([C@H]3CC[C@H](N4CCN(C)CC4)CC3)c3ncnc(N)c23)ccc1NCc1ccccc1 |  |  |  |  |  |  | IC50 [10]: > 50000 nM; IC50 [11]: 55 nM |
